The values that follow are results of earlier work, collected in patent publication US10441534B2, “Method for treating gynecological diseases” (PregLem SA, priority 2012, dated 2019).

The conditions of data set [1]: once daily UPA 5 mg tablets, plasma.
Another data set relates to uterine fibroids. The settings on record: three months treatment period.

Regarding `CC(=O)O[C@]1(C(C)=O)CC[C@H]2[C@@H]3CCC4=CC(=O)CCC4=C3[C@@H](c3ccc(N(C)C)cc3)C[C@@]21C` [ulipristal acetate, 17α-acetoxy-11β-(4-(N,N-dimethylamino)-phenyl)-19-norpregna-4,9-diene-3,20-dione], in data set [1], the “UPA Cmax” value is “about 25 ng/mL” and the “UPA steady state concentrations” value was “about 3 ng/mL”. Further, in the data set with uterine fibroids, the “efficacy in patient with uterine fibroids” value was “efficient on the control of bleeding, reduction of fibroids volume and improvement of the patient quality of life”.
